Several values for one entry are separate records, joined by “and”; a condition that tells them apart may be missing. Equal values may be shown once. Read-outs that look alike come from different tables or passages of the source.
Experiments:
[1] = test system: O. gutturosa adult male worms; assay: O. gutturosa adult worm 5-day motility assay; design: species or system Onchocerca gutturosa; settings: 5 days in vitro culture, top concentration 12.5 μM, read-out: O. gutturosa EC50 (motility inhibition, adult worms)
Excerpt: O. gutturosa adult male worms were obtained postmortem from freshly slaughtered cattle. The worms were dissected from the nuchal ligament connective tissues of naturally infected cattle in Gambia, West Africa; The West Africa Livestock Innovation Centre (WALIC), Banjul, purchased material from local butchers for use in this study.
Using a dissecting microscope and micropipette, microfilariae were then transferred in groups of 5 into each well of a 96-well plate (Fisher Scientific, UK). The adult O. gutturosa worms were transferred individually to each well of a sterile 24-well (2 mL) plate (Fisher Scientific, UK) and maintained for at least 24 h in culture before use. […]
(§1) Only normally active worms were used for the test and all assays were conducted at 37 °C and 5% CO2. […] The activity levels of O. gutturosa adult worms were assessed by the measurement of mean motility scores on a scale of 0 (immotile) to 10 (maximum) every 24 h, terminating at 120 h, using an Olympus inverted microscope. For O. lienalis microfilariae, the motility of the microfilariae was classified using an Olympus inverted microscope as normal (continuous rapid sinuous movement, scored as 3), marginally impaired (slower than normal movement, scored as 2), severely impaired (scored as 1), or immotile (scored as 0) after 120 h of drug exposure. […]

O. gutturosa adult worms = assay: O. gutturosa adult worm viability, MTT/formazan colorimetry; design: species or system Onchocerca gutturosa; settings: day 5, vs untreated control
Experimental: The EC50 values were calculated using a sigmoidal interpolation in Graph Pad Prisme 7 data analysis software. The test drug is considered active when a motility reduction of ≥50% is observed by comparison to the untreated controls. In addition, biochemical evaluation of O. gutturosa adult worm viability was assessed using MTT/formazan colorimetry. The MTT assay was carried out after the last motility reading (120 h). Single intact worms were placed in each well of a 48-well plate (Fisher Scientific, UK) containing 0.5 mL of 0.5 mg/mL MTT (Sigma, UK) in PBS solution, and then incubated for 30 min at 37 °C. The worms were removed, blotted carefully, and individually transferred to separate wells of a 96-well microtiter plate, each containing 200 μL of DMSO to solubilize the formazan. After 1 h the plate was gently agitated to disperse the color evenly and the absorbance value (optical density, OD) of the resulting formazan solution was determined at 490 nm using an absorbance microplate reader (Biotek ELx800, Fisher Scientific, UK). The results are expressed as the mean OD per drug concentration. Inhibition of formazan formation is correlated with worm damage or death.
Supplementary Figure S4. Ex vivo MTT worm viability screening against adult O. gutturosa. O. gutturosa adult worm viability was assessed using MTT/formazan colorimetry on day 5. […]

[2] = test system: O. lienalis microfilariae; assay: O. lienalis microfilariae 5-day motility assay; design: species or system Onchocerca lienalis; settings: 5 days in vitro culture, top concentration 12.5 μM; read-out: O. lienalis EC50 (motility inhibition, microfilariae)
Experimental: A single large batch of O. lienalis microfilariae was obtained post mortem from the peri-umbilical skin area of freshly slaughtered, naturally infected cattle in the UK following the procedure described by ([Tagboto and Townson, 1991]) and the references therein. The extracted microfilariae were cryopreserved using a 2-step incubation technique with ethanediol as a cryoprotectant ([Ham et al., 1981]), stored in liquid nitrogen and thawed when required for immediate use.
Using a dissecting microscope and micropipette, microfilariae were then transferred in groups of 5 into each well of a 96-well plate (Fisher Scientific, UK). […]
as §1
The EC50 values were calculated using a sigmoidal interpolation in Graph Pad Prisme 7 data analysis software. […]

adult L. sigmodontis = assay: L. sigmodontis murine model of filariasis (adult worm burden); assay type: in vivo, Litomosoides sigmodontis in female BALB/c mice; settings: BALB/c mice, 2 mg/kg, QD SC, 5 days, mean vs mean of vehicle controls

| Compound | EC50 ([1]; listed as Imiticide) | EC50 [1] | O. gutturosa MTT % reduction at 12.5 μM (O. gutturosa adult worms) | EC50 [2] | Reduction Adult Worms (adult L. sigmodontis) |
| --- | --- | --- | --- | --- | --- |
| Cl.Cl.NCCS[As](SCCN)c1ccc(Nc2nc(N)nc(N)n2)cc1 [Immiticide, melarsomine dihydrochloride] | 600 nM | 590 nM | 96.3% | 800 nM | – |
| COC(=O)Nc1nc2cc(C(=O)c3ccc(F)cc3)ccc2[nH]1 [Flubendazole, flubendazole] | – | – | – | – | 98.4% (P = 0.024) and 100% (P = 0.007) |

Reference: publication PMC9278491, “Filarial nematode phenotypic screening cascade to identify compounds with anti-parasitic activity for drug discovery optimization” (International Journal for Parasitology: Drugs and Drug …, 2022)
